Experimental data published in ChEMBL document CHEMBL1201862, “PubChem BioAssay data set” (2004).
“And” between values parts separate entries of the source, which are not always exact repeats. Equal values may be shown once.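 Following 48 hours of exposure in 96-well plates, responses at five concentrations were used to interpolate endpoints linearly. GI50: concentration for 50% inhibition of growth.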 The source made the active and inactive calls. No stated cut-off is given here; in the data, active = GI50 up to about 1.1 µM and inactive = higher.

How the values were obtained:
Test in all cases: inhibition of tumour cell growth, NCI panel, 48 h
HOP-62 = test system: HOP-62
RPMI-8226 = test system: RPMI-8226
SK-MEL-5 = test system: SK-MEL-5
PC-3 = test system: PC-3
HCC 2998 = test system: HCC 2998
M14 = test system: M14
OVCAR-8 = test system: OVCAR-8
KM12 = test system: KM12
SNB-75 = test system: SNB-75
786-0 = test system: 786-0
SK-OV-3 = test system: SK-OV-3
RXF 393 = test system: RXF 393
SN12C = test system: SN12C
T47D = test system: T47D
MCF7 = test system: MCF7
NCI-H23 = test system: NCI-H23
MOLT-4 = test system: MOLT-4
SW-620 = test system: SW-620
TK-10 = test system: TK-10
SF-268 = test system: SF-268
UACC-62 = test system: UACC-62
EKVX = test system: EKVX
CCRF-CEM = test system: CCRF-CEM
HCT-15 = test system: HCT-15
SF-295 = test system: SF-295
IGROV-1 = test system: IGROV-1
MDA-MB-231 = test system: MDA-MB-231
MDA-N = test system: MDA-N
A549 = test system: A549
SR = test system: SR
SK-MEL-28 = test system: SK-MEL-28
Malme-3M = test system: Malme-3M
CAKI-1 = test system: CAKI-1
HCT-116 = test system: HCT-116
UACC-257 = test system: UACC-257
SK-MEL-2 = test system: SK-MEL-2
NCI/ADR-RES = test system: NCI/ADR-RES
SF-539 = test system: SF-539
K562 = test system: K562
Hs-578T = test system: Hs-578T
LOX IMVI = test system: LOX IMVI
U-251 = test system: U-251
A498 = test system: A498
NCI-H522 = test system: NCI-H522
COLO 205 = test system: COLO 205
HOP-92 = test system: HOP-92
DU-145 = test system: DU-145
ACHN = test system: ACHN
MDA-MB-435 = test system: MDA-MB-435
HL-60 = test system: HL-60
OVCAR-5 = test system: OVCAR-5
OVCAR-3 = test system: OVCAR-3
SNB-19 = test system: SNB-19
NCI-H460 = test system: NCI-H460
UO-31 = test system: UO-31
HT-29 = test system: HT-29
NCI-H226 = test system: NCI-H226
OVCAR-4 = test system: OVCAR-4

CC1OC(c2ccccc2)=CC(OCc2ccccc2)[C@H]1OCc1ccccc1 (stereo not given in full)
GI50 (HOP-62): > 10 µM (inactive) | GI50 (RPMI-8226): > 10 µM (inactive) | GI50 (SK-MEL-5): > 10 µM (inactive) | GI50 (PC-3): > 10 µM (inactive) | GI50 (HCC 2998): > 10 µM (inactive) | GI50 (M14): > 10 µM (inactive) | GI50 (OVCAR-8): > 10 µM (inactive) | GI50 (KM12): > 10 µM (inactive) | GI50 (SNB-75): > 10 µM (inactive) | GI50 (786-0): > 10 µM (inactive) | GI50 (SK-OV-3): > 10 µM (inactive) | GI50 (RXF 393): > 10 µM (inactive) | GI50 (SN12C): > 10 µM (inactive) | GI50 (T47D): > 10 µM (inactive) | GI50 (MCF7): > 10 µM (inactive) | GI50 (NCI-H23): > 10 µM (inactive) | GI50 (MOLT-4): > 10 µM (inactive) | GI50 (SW-620): > 10 µM (inactive) | GI50 (TK-10): > 10 µM (inactive) | GI50 (SF-268): > 10 µM (inactive) | GI50 (UACC-62): > 10 µM (inactive) | GI50 (EKVX): > 10 µM (inactive) | GI50 (CCRF-CEM): > 10 µM (inactive) | GI50 (HCT-15): > 10 µM | GI50 (SF-295): > 10 µM (inactive) | GI50 (IGROV-1): > 10 µM (inactive) | GI50 (MDA-MB-231): > 10 µM (inactive) | GI50 (MDA-N): > 10 µM (inactive) | GI50 (A549): > 10 µM (inactive) | GI50 (SR): > 10 µM (inactive) | GI50 (SK-MEL-28): > 10 µM (inactive) | GI50 (Malme-3M): > 10 µM (inactive) | GI50 (CAKI-1): > 10 µM (inactive)

CO/N=C(/C(=O)OC)c1ccccc1COc1cccc(C(F)(F)F)c1
GI50 (HCT-116): 10.8 µM (inactive) | GI50 (UACC-257): 8.51 µM (inactive) | GI50 (HOP-62): 21.2 µM (inactive) | GI50 (SK-MEL-2): 36.1 µM (inactive) | GI50 (RPMI-8226): 6.18 µM (inactive) | GI50 (SK-MEL-5): 4.79 µM (inactive) | GI50 (NCI/ADR-RES): 36.9 µM (inactive) | GI50 (SF-539): 54.1 µM (inactive) | GI50 (PC-3): 22 µM (inactive) | GI50 (K562): 18.5 µM (inactive) | GI50 (M14): 24.6 µM (inactive) | GI50 (KM12): 18.8 µM (inactive) | GI50 (SNB-75): 31.7 µM (inactive) | GI50 (786-0): 30.7 µM (inactive) | GI50 (SK-OV-3): 38.9 µM (inactive) | GI50 (Hs-578T): 25.8 µM (inactive) | GI50 (RXF 393): 26.4 µM (inactive) | GI50 (LOX IMVI): 22.9 µM (inactive) | GI50 (U-251): 36.4 µM (inactive) | GI50 (SN12C): 43.9 µM (inactive) | GI50 (T47D): 9.55 µM (inactive) | GI50 (MCF7): 25.3 µM (inactive) | GI50 (A498): 43.5 µM (inactive) | GI50 (NCI-H522): 20 µM (inactive) | GI50 (NCI-H23): 27.9 µM (inactive) | GI50 (MOLT-4): 10.6 µM (inactive) | GI50 (COLO 205): 41.8 µM (inactive) | GI50 (HOP-92): 36.2 µM (inactive) | GI50 (DU-145): 26.5 µM (inactive) | GI50 (ACHN): 33.3 µM (inactive) | GI50 (MDA-MB-435): 29.3 µM (inactive) | GI50 (HL-60): 9.68 µM (inactive) | GI50 (SW-620): 42.5 µM (inactive) | GI50 (OVCAR-5): 76.2 µM (inactive) | GI50 (TK-10): 11.4 µM (inactive) | GI50 (SF-268): 35.5 µM (inactive) | GI50 (OVCAR-3): 11.6 µM (inactive) | GI50 (UACC-62): 18.2 µM (inactive) | GI50 (SNB-19): 71.4 µM (inactive) | GI50 (NCI-H460): 28.8 µM (inactive) | GI50 (EKVX): 7.62 µM (inactive) | GI50 (CCRF-CEM): 16 µM (inactive) | GI50 (HCT-15): 29.2 µM | GI50 (SF-295): 7.23 µM (inactive) | GI50 (UO-31): 39.8 µM (inactive) | GI50 (HT-29): 46.9 µM (inactive) | GI50 (IGROV-1): 30.2 µM (inactive) | GI50 (MDA-MB-231): 72.8 µM (inactive) | GI50 (MDA-N): 27.4 µM (inactive) | GI50 (A549): 38.1 µM (inactive) | GI50 (NCI-H226): 29.4 µM (inactive) | GI50 (SK-MEL-28): 78.7 µM (inactive) | GI50 (OVCAR-4): 19.5 µM (inactive) | GI50 (Malme-3M): 2.3 µM (inactive) | GI50 (CAKI-1): 12.1 µM (inactive)

COc1ccc(C[C@H]2COC(=O)[C@@H]2Cc2ccccc2)cc1OC
GI50 (HCT-116): > 100 µM (inactive) | GI50 (UACC-257): > 100 µM (inactive) | GI50 (HOP-62): > 100 µM (inactive) | GI50 (RPMI-8226): > 100 µM (inactive) | GI50 (SK-MEL-5): > 100 µM (inactive) | GI50 (NCI/ADR-RES): > 100 µM (inactive) | GI50 (PC-3): > 100 µM (inactive) | GI50 (K562): > 100 µM (inactive) | GI50 (OVCAR-8): > 100 µM (inactive) | GI50 (KM12): > 100 µM (inactive) | GI50 (786-0): > 100 µM (inactive) | GI50 (SK-OV-3): > 100 µM (inactive) | GI50 (Hs-578T): > 100 µM (inactive) | GI50 (LOX IMVI): > 100 µM (inactive) | GI50 (U-251): > 100 µM (inactive) | GI50 (SN12C): > 100 µM (inactive) | GI50 (T47D): > 100 µM (inactive) | GI50 (MCF7): > 100 µM (inactive) | GI50 (A498): > 100 µM (inactive) | GI50 (NCI-H23): > 100 µM (inactive) | GI50 (MOLT-4): > 100 µM (inactive) | GI50 (DU-145): > 100 µM (inactive) | GI50 (ACHN): > 100 µM (inactive) | GI50 (SW-620): > 100 µM (inactive) | GI50 (OVCAR-5): > 100 µM (inactive) | GI50 (TK-10): > 100 µM (inactive) | GI50 (OVCAR-3): > 100 µM (inactive) | GI50 (SNB-19): > 100 µM (inactive) | GI50 (NCI-H460): > 100 µM (inactive) | GI50 (EKVX): > 100 µM (inactive) | GI50 (CCRF-CEM): > 100 µM (inactive) | GI50 (SF-295): > 100 µM (inactive) | GI50 (HT-29): > 100 µM (inactive) | GI50 (IGROV-1): > 100 µM (inactive) | GI50 (MDA-MB-231): > 100 µM (inactive) | GI50 (MDA-N): > 100 µM (inactive) | GI50 (A549): > 100 µM (inactive) | GI50 (SR): > 100 µM (inactive) | GI50 (NCI-H226): > 100 µM (inactive) | GI50 (SK-MEL-28): > 100 µM (inactive) | GI50 (Malme-3M): > 100 µM (inactive)

COC(=O)/C=C/c1cc(OC)c2c(c1)C(C(=O)OC)C(c1ccc(O)c(OC)c1)O2 (stereo not given)
GI50 (SK-MEL-5): 2.27 µM (inactive) and 2.57 µM (inactive) and 1.4 µM (inactive) | GI50 (SF-539): 2.69 µM (inactive) and 2.17 µM (inactive) and 1.82 µM (inactive) | GI50 (PC-3): 3.13 µM (inactive) and 2.84 µM (inactive) and 2.79 µM (inactive) | GI50 (M14): 4.05 µM (inactive) and 5.74 µM (inactive) and 3.53 µM (inactive) | GI50 (KM12): 2.83 µM (inactive) and 3.34 µM (inactive) and 2.13 µM (inactive) | GI50 (SNB-75): 1.95 µM (inactive) and 1.51 µM (inactive) and 1.94 µM (inactive) | GI50 (786-0): 3.44 µM (inactive) and 2.21 µM (inactive) and 4.33 µM (inactive) | GI50 (SK-OV-3): 5.71 µM (inactive) and 5.64 µM (inactive) and 3.26 µM (inactive) | GI50 (Hs-578T): 2.69 µM (inactive) and 2.38 µM (inactive) and 1.67 µM (inactive) | GI50 (RXF 393): 1.88 µM (inactive) and 2.98 µM (inactive) and 2.43 µM (inactive) | GI50 (U-251): 3.4 µM (inactive) and 3.29 µM (inactive) and 3.13 µM (inactive) | GI50 (T47D): 3.87 µM (inactive) and 7.14 µM (inactive) and 3.73 µM (inactive) | GI50 (A498): 8.95 µM (inactive) and 15.2 µM (inactive) and 8.2 µM (inactive) | GI50 (NCI-H23): 5.08 µM (inactive) and 3.93 µM (inactive) and 5.18 µM (inactive) | GI50 (DU-145): 3.72 µM (inactive) and 3.18 µM (inactive) and 4.32 µM (inactive) | GI50 (SF-268): 7.87 µM (inactive) and 8.04 µM (inactive) and 5.83 µM (inactive) | GI50 (SF-295): 2.2 µM (inactive) and 2.36 µM (inactive) and 1.22 µM (inactive) | GI50 (UO-31): 4.98 µM (inactive) and 4.86 µM (inactive) and 9.53 µM (inactive) | GI50 (MDA-MB-231): 2.49 µM (inactive) and 4.51 µM (inactive) and 3.15 µM (inactive) | GI50 (A549): 6.25 µM (inactive) and 5.69 µM (inactive) and 6 µM (inactive) | GI50 (Malme-3M): 4.58 µM (inactive) and 4.39 µM (inactive) and 2.74 µM (inactive)
